Experimental findings from patent publication US20180354909A1, “SUBSTITUTED BENZIMIDAZOLIUM, PYRIDO-IMIDAZOLIUM, OR PYRAZINO-IMIDAZOLIUM COMPOUNDS AS CHEMOTHERAPEUTICS” (The Board of Regents of the University of Texas System, priority 2015, published 2018) are described below.

Experiment [1] has as its system mitochondrial membrane potential. The experiment can be described thus: TMRE mitochondrial membrane potential staining in Mut6 cells. The class given is cell-based, mouse. The conditions noted are these: within 30 min. How it is done: TMRE mitochondrial membrane potential assay kit was purchased from Abcam (113852) and the assay was performed according to the manufacturer's protocol. Briefly, cells were pre-incubated with 1 μM 12M11 (10 min or 18 hrs) or 100 nM FCCP (10 min) and incubated for additional 20 min with 200 nM TMRE before pictures were taken.

Experiment [2] relates to Mut6. The experiment can be described thus: Cytotox testing (CellTiter-Glo ATP assay) in Mut6 cells. The experiment is classed as cell-based, mouse. The conditions noted are these: CellTiter-Glo. How it is done:
(§1) Mut6 tumor cells were cultured in DMEM/F12 media supplemented by EGF (10 ng/mL), basic FGF (10 ng/mL), heparin (4 ug/mL), glucose (total 21 mM), NaHCO3 (113 μg/mL), Hepes (119 μg/mL), glutamine (2 mM), sodium pyruvate (1 mM), N2 supplement (ThermoFisher Gibco 17502-048, 100×, at 100-fold dilution), B27 supplement (ThermoFisher Gibco 12587-010, 50×, at 100-fold dilution), and penicillin/streptomycin (ThermoFisher, final 1%). Cells were maintained in Ultra-low attachment plate (Corning) as sphere-forming cells. For ATP assays and protein/RNA isolation, cells were plated into 96-well plates or 6-well plated that were coated with poly-lysine (Sigma P6407, 10 μg/mL in PBS, 4 hr at 37° C.) and laminin (ThermoFisher 23017015, ˜5 mg/L in PBS, overnight at 37° C.). MEFs and Astrocytes were cultured in DMEM supplemented with 10% FBS and 1% Penicillin/Streptomycin.
2,000 cells were plated into each well of 96-well plates. About 3 hours later, cells were treated by 12M11, at 800-fold dilution (4 mM stock was diluted into 5 μM final concentration). […] CellTiter-Glo assay (Promega) was performed according to manufacturer's instructions, by adding 20 μL of reagent into each well. Luminescence signal was detected by the PolarStar plate reader (BMG Labtech). Experiments were performed in quadruplicate, and results are presented with mean average −/+ standard deviation. EC505 were calculated by GraphPad Prism6 software.
The compounds described herein were tested using a cell-based cytotoxicity assay against neuronal stem cells in Mut6, which is a mouse glioblastoma model cell line.

In another experiment the test system is astrocytes. The experiment can be described thus: Cytotox testing (CellTiter-Glo) in astrocytes. The experiment is classed as cell-based. How it is done:
as §1
2,000 cells were plated into each well of 96-well plates. About 3 hours later, cells were treated by 12M11, at 800-fold dilution (4 mM stock was diluted into 5 μM final concentration). Cells were further incubated for 4 days. CellTiter-Glo assay (Promega) was performed according to manufacturer's instructions, by adding 20 μL of reagent into each well. Luminescence signal was detected by the PolarStar plate reader (BMG Labtech). Experiments were performed in quadruplicate, and results are presented with mean average −/+ standard deviation. EC505 were calculated by GraphPad Prism6 software.
On the technique in general: Cellular ATP, detected with luciferase, serves as a proxy for viable cell number.

The subject of a further experiment is ATF4. The experiment can be described thus: ATF4 western blot in Mut6 cells. The experiment is classed as cell-based, mouse. How it is done: (§2) Mut6 tumor cells and MEFs were treated by DMSO or 1 μM 12M11 for the indicated times. Cell lysate was prepared by RIPA buffer with phosphatase inhibitor (Thermo) and protease inhibitor (Roche). Antibodies are purchased from Santa Cruz (ATF4), Cell Signaling (pS6, S6, AMPK, and pAMPK), and Millipore (Gapdh).
In general terms: A western blot detects proteins with antibodies after separation by electrophoresis.

For another experiment, the system named is Phospho-S6. The experiment can be described thus: p-S6 western blot in Mut6 cells. The class given is cell-based, mouse. How it is done:
as §2

The test system of experiment [3] is Mut6. The experiment can be described thus: Change in ATP levels in Mut6 cells. The experiment is classed as cell-based, mouse. Conditions: Mut6, 2-6 hr. The protocol: (§3) Mut6 tumor cells or MEFs were plated into 96-well plates. One day later, Oligomyin (2 μM), Rotenone (200 nM), or 12M11 (1 μM) were added into each well and then ATP levels were measured by Cell-Titer Glo (Promega) after 2 hr, 4 hr, or 6 hr incubation. Each data is mean of six replicates with ± standard deviation.

A further experiment deals with MEF. The experiment can be described thus: Change in ATP levels in MEF cells. The conditions noted are these: 2-6 hr. The experiment is classed as cell-based, mouse. How it is done: as §3

`N#CC(C#N)=NNc1ccc(OC(F)(F)F)cc1` [FCCP, reference compound]: the “oxidative phosphorylation / mitochondrial membrane potential by TMRE staining” value in experiment [1] is “impairs oxidative phosphorylation”.

As for `CC[C@H]1/C=C/C=C/C[C@@H](C)[C@H](O)[C@@](C)(O)C(=O)[C@@H](C)[C@H](O)[C@@H](C)C(=O)[C@@H](C)[C@H](O)[C@@H](C)/C=C/C(=O)O[C@@H]2[C@H](C)[C@H](CC1)O[C@]1(CC[C@H](C)[C@H](C[C@@H](C)O)O1)[C@H]2C` [oligomycin], in the experiment with Mut6 [2], the “activity against Mut6 cells” value was “sensitive”. Besides, the “activity against astrocytes” value in the experiment on astrocytes is “sensitive”. The ATF4 protein level entry in the experiment on ATF4 was “induction”. Also, the Phospho-S6 protein level result in the experiment with Phospho-S6 is on record as “suppression”. The figures for the “ATP levels (% change from basal)” value with Mut6 [3] and in the experiment on MEF were “decrease significantly” and “increase”, respectively.

As for `C=C(C)[C@H]1Cc2c(ccc3c2O[C@@H]2COc4cc(OC)c(OC)cc4[C@@H]2C3=O)O1` [rotenone], in the experiment with Mut6 [2], the “activity against Mut6 cells” value was “sensitive”. The “activity against astrocytes” value with astrocytes was “sensitive”. Moreover, the ATF4 protein level entry in the experiment with ATF4 is given as “induction”. Besides, the Phospho-S6 protein level entry in the experiment with Phospho-S6 is on record as “suppression”. In addition, the “ATP levels (% change from basal)” value is recorded as “decrease significantly” in the experiment with Mut6 [3] and “increase” with MEF.
